Where two headings read alike, the source gives them in different places.
Columns and labels:
[1] = system: CCK-8 response in guinea pig gall bladder; test: Isolated guinea pig gall bladder, CCK-8 contractile response; conditions: compound at 2 uM, added at least 5 minutes before CCK-8
Protocol: Isolated guinea pig gall bladder method
The two halves of the gall bladders, free of adjacent tissue, of male Hartley guinea pigs (400-600 q), which had been sacrificed by ? were suspended under 1 g tension along the axis of the bile duct in 5 ml organ bath, containing a Kreb's bicarbonate solution of 118 mM NaCl, 4.75 mM KC1, 2.54 CaCl2, 1.19 mM KH2PO4, 1.2 mM MgS04, 25 mM NaHC03 and 11 mM dextrose, which is maintained at 32°C and bubbled with a mixture of 95% 02 and 5% C02. The tissues were washed every 10 minutes for 1 hour to obtain equilibrium prior to the beginning of the study and the isometric contractions of the strips were recorded using Statham (60 g:0.12 mm) strain gauges and a Hewlett-Packard 77588 recorder.
CCK-8 was added cumulatively to the baths and the EC50's were determined using regression analysis. After washout (every 10 minutes-for 1 hour), the compound to be tested was added at least 5 minutes before the addition of CCK-8 and the EC50 of CCK-8 in the presence of the compound to be tested was also simillarly determined.

CCK receptor (pancreas) = target: T1, CCK receptor (pancreas) (Rattus norvegicus, UniProt P30551); test: CCK receptor binding (pancreas), 125I-CCK-33 receptor binding assay; conditions: for IC50: inhibition of 50% of the 125I-CCK binding, rat pancreas membranes, 37°C, 30 minutes
T1 construct: The whole pancreas of a male Sprague-Dawley rat (200-350 g), which had been sacrificed by decapitation, was dissected free of fat tissue and homogenized; from tissue; host or cells: rat pancreas membrane homogenate
T1 sequence (P30551 1-444): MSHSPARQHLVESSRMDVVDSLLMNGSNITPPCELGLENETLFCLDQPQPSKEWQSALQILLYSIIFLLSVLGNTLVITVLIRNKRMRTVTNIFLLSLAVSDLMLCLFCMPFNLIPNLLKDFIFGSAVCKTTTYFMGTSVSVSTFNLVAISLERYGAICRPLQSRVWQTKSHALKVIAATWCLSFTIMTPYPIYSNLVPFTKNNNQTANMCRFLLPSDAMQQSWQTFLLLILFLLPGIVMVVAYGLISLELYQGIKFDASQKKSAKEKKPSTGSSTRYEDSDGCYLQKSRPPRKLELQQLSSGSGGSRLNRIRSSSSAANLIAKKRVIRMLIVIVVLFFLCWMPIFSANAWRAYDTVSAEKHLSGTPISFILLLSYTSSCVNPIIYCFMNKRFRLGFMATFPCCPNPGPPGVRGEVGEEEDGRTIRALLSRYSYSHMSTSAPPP
From the text: Screening of these known compounds to determine biological activity and obtain an IC50 value for them to identify significant CCK-antagonism may be accomplished using an 125I-CCK receptor binding assay and in vitro isolated tissue preparations. These tests involve the following: • CCK receptor binding (pancreas) method
CCK-33 was radiolabeled with ^125I-Bolton Hunter reagent (2000 Ci/mmole), as described by Sankara et al. (J. Biol. Chem., 254, 9349-9351, 1979).
The whole pancreas of a male Sprague-Dawley rat (200-350 g), which had been sacrificed by decapitation, was dissected free of fat tissue and homogenized in 20 volumes of ice-cold 50 mM Tris HC1 (pH 7.7 at 25°C) with a Brinkmann Polytron PT-10. The homogenates were centrifuged at 48,000g for 10 minutes, then the resulting pellets were resuspended in Tris Buffer, centrifuged as above, and resuspended in 200 volumes of binding assay buffer (50 mM Tris HC1, pH 7.7 at 25°C, 5 mM dithiothreitol, 0.1 mM bacitracin, 1.2 mM phenylmethane sulfonyl fluoride and 0.5 mM o-phenanthroline).
All assays were run in duplicate or triplicate, and the reaction mixtures were incubated at 37°C for 30 minutes and centrifuged in a Beckman Microfuge (4 minutes) immediately after adding 1 ml of ice-cold incubation buffer. The supernatant was aspirated and discarded, and the pellets were counted with a Beckman gamma 5000.

[2] = read-out: IC50 (µM) CCK Pancreas

SMILES: CN1c2ccccc2C(c2ccccc2F)=NCC1CNC(=O)c1ccsc1 (racemic) [Compound 2, (±)-1-methyl-2-(thiophene-3-carbonyl) aminomethyl-5-(2'-fluorophenyl)-2,3-dihydro-l,4-benzodiazepine]
- effect on CCK dose response curve [1]: parallel shift to the right of the CCK dose response curve without reduction of the maximal contractile response
- IC50 (CCK receptor (pancreas); IC50 (µM) CCK Pancreas): 0.2 µM
- mechanism of inhibition of specific 125I-CCK-33 receptor binding (Scatchard analysis) (CCK receptor (pancreas); absence and presence of 0.2 µM of compound, increased the KD without affecting the Bmax): competitively inhibited specific ^125I-CCK-33 receptor binding

SMILES: CN1c2ccccc2C(c2ccccc2F)=NCC1CNC(=O)c1ccsc1 (single isomer, unassigned; (+)) [Compound 6, (+)-1-methyl-2-(thiophene-3-carbonyl)aminomethyl-5-(2-fluorophenyl)-lH-2,3-dihydro-1,4-benzodiazepine]
- IC50 (CCK receptor (pancreas); IC50 (µM) CCK Pancreas): 13.9 µM

SMILES: CN1c2ccccc2C(c2ccccc2F)=NCC1CNC(=O)c1ccsc1 (single isomer, unassigned; (-)) [Compound 1, (-)-1-methyl-2-(thiophene-3-carbonyl)aminomethyl-5-(2'-fluorophenyl)-1H-2,3-dihydro-1,4-benzodiazepine]
- IC50 (CCK receptor (pancreas); IC50 (µM) CCK Pancreas): 0.1 µM

SMILES: CN1c2ccccc2C(c2ccccc2F)=NCC1CNC(=O)c1ccc(Cl)cc1 (stereo not drawn) [Compound 3, l-methyl-2-(4'-chlorophenylcarbonyl) aminomethyl-5-(2'-fluorophenyl)-3H-2,3-dihydro-1,4-benzodiazepine]
- IC50 (CCK receptor (pancreas); [2]): 0.8 µM

SMILES: CN1c2ccccc2C(c2ccccc2F)=NCC1CNC(=O)c1ccccc1F (stereo not drawn) [Compound 4, l-methyl-2-(2-fluorophenyl-carbonyl)aminomethyl-5-(2'-fluorophenyl)-lH-2,3-dihydro-1,4-benzodiazepine]
- IC50 (CCK receptor (pancreas); [2]): 2.9 µM

SMILES: CN1c2ccccc2C(c2ccccc2F)=NCC1CN1C(=O)c2ccccc2C1=O (stereo not drawn) [Compound 5, [(1-methyl-5-(2'-fluorophenyl)-lH-l,4-benzopin-2-yl)methyl]-lH-isoindole-1,3-(2H)-dione]
- IC50 (CCK receptor (pancreas); [2]): 4.3 µM

SMILES: CN1c2ccccc2C(c2ccccc2F)=NCC1CNC(=O)c1cccnc1 (stereo not drawn) [Compound 7, 1-methyl-2-(pyridine-3-carbonyl)aminomethyl-5-(2'-fluorophenyl)-1H-2,3-dihydro-1,4-benzodiazepine]
- IC50 (CCK receptor (pancreas); [2]): 10 µM
